The subject of the assay is UPR adaptive arm reporter cells, luciferase luminescence. The assay is described as follows: adaptive unfolded protein response reporter activation – cell-based, luciferase luminescence, dose response (AID 489032).

The structures appear in SMILES notation. The source made the active and inactive calls. How the calls were made is not given here.

Drawing on PubChem BioAssay AID489032 (Sanford-Burnham Center for Chemical Genomics, 2010), this text covers EC50 for 79 molecules.

A word on the EC50: it is the concentration that produces a half-maximal response.

Regarding `CCN(CC)c1ccc(C(=O)OCC(=O)Nc2cc3oc4ccccc4c3cc2OC)cc1`, the EC50 was 25.8 µM (inactive).

Turning to `NC1=NC[C@@H](CC2CCCCC2)N1CCc1cc(C(F)(F)F)cc(C(F)(F)F)c1`, the EC50 was > 80 µM (inactive).

As to `Cc1ccc2nc(-c3ccc(NC(=S)NC4CC(C)(C)NC(C)(C)C4)cc3)sc2c1`, the EC50 was > 80 µM (inactive).

On to `COc1ccc(-c2nn(-c3ccccc3)cc2/C=C/C(=O)OCC(=O)Nc2cccc(C#N)c2)cc1`, for which the EC50 is 11.9 µM.

As for `CCOC(=O)c1c(NC(=O)CSc2nnc3c(n2)[nH]c2ccc(F)cc23)sc(C(C)=O)c1C`, the EC50 was 21.8 µM (inactive).

Take `CCc1ccc(-n2c(SCC(=O)c3ccc4c(c3)NC(=O)CO4)nc3ccccc3c2=O)cc1`: the EC50 was > 80 µM (inactive).

Turning to `C/C(CCC12CC3CC(CC(C3)C1)C2)=N\NC(N)=S`, the EC50 is 27.3 µM (inactive).

`FC(F)(F)c1nnc2c(Sc3ccccc3)nc3ccc(Cl)cc3n12`: the EC50 is > 80 µM (inactive).

For `Cc1ccc(NC(=O)COc2ccc(/C=C3/SC(=Nc4ccccc4)N(Cc4cccnc4)C3=O)cc2)cc1`, the EC50 was 34.4 µM (inactive).

As for `O=[N+]([O-])c1ccc(N/N=C/c2ccc(OCc3cccc4ccccc34)cc2)nc1`, the EC50 was > 80 µM (inactive).

Consider `Cc1ccc(C(=O)C(C(=O)/C=C/c2ccccc2)=C2SCCCS2)cc1`, for which the EC50 is > 80 µM (inactive).

For `COc1cc(/C=C(/C#N)c2nc3ccccc3[nH]2)ccc1OCC(=O)Nc1ccccc1C`, the EC50 was > 80 µM (inactive).

As for `C/C(=N/Nc1cc(-c2ccccc2)nc(-c2ccccc2)n1)c1ccc(O)cc1`, the EC50 is 19.9 µM.

Regarding `CC(C)=CCCC1(C)C=Cc2c(c(C)cc3c2[nH]c2cc(O)ccc23)O1` (centres undefined), the EC50 was > 80 µM (inactive).

For `O=C(/C=C/c1ccccc1)NC(NC(=S)Nc1cccc(Cl)c1)C(Cl)(Cl)Cl` (centres undefined), the EC50 is > 80 µM (inactive).

As to `N#CCC(=O)N/N=C/c1cn(Cc2cccc3ccccc23)c2ccccc12`, the EC50 is > 80 µM (inactive).

Regarding `COC(=O)c1ccc(COc2ccccc2/C=C(\C#N)C(=O)Nc2c(C)cccc2C)cc1`, the EC50 was > 80 µM (inactive).

As for `Cc1ccc(-c2nnn(CC(=O)N(Cc3cccs3)C(C(=O)NC3CCCCC3)c3ccco3)n2)o1` (centres undefined), the EC50 is > 80 µM (inactive).

On to `CCOc1cc(/C=C2/NC(=S)NC2=O)ccc1OCc1ccc([N+](=O)[O-])cc1`, for which the EC50 is > 80 µM (inactive).

Take `COc1ccc(NC(=O)CSc2nc3ccc(Nc4nc(N5CCOCC5)nc(N5CCOCC5)n4)cc3s2)cc1`: the EC50 is > 80 µM (inactive).

`COc1ccc(-c2c(-c3cc(OC)cc(OC)c3)n(C)c3ccc(-c4cnc(N)nc4)cc23)cc1`: the EC50 was 36.1 µM (inactive).

Regarding `O=[N+]([O-])c1ccc(N/N=C/c2cccc(O)c2O)c(S(=O)(=O)N2CCOCC2)c1`, the EC50 is 21.2 µM (inactive).

For the molecule `O=C(Oc1ccc(F)cc1C(=O)/C=C/c1cccs1)c1cccc([N+](=O)[O-])c1`, the EC50 is 51.3 µM (inactive).

Regarding `CCOc1ccc(C(=O)Nc2cc(-c3nc4ccccc4[nH]3)ccc2Cl)cc1[N+](=O)[O-]`, the EC50 is 24.2 µM (inactive).

On to `O=C1c2cccc3cc(Br)cc(c23)C(=O)N1Nc1ccc(Br)cc1`, for which the EC50 was > 80 µM (inactive).

`CC(C)=CCCC1(C)C=Cc2c(ccc3c2[nH]c2cc(O)c(C)cc23)O1` (centres undefined): the EC50 is > 80 µM (inactive).

In the case of `CN(C)CCCN(C(=O)c1cc(-c2cccs2)nc2ccccc12)c1nc2ccc(F)cc2s1`, the EC50 is > 80 µM (inactive).

Take `O=C(Nc1ccc(Oc2ccc(NC(=O)Nc3ccccc3Cl)cc2)cc1)Nc1ccccc1Cl`: the EC50 is > 80 µM (inactive).

On to `O=C(COc1ccc(/C=N/NC(=O)c2cc3ccccc3o2)cc1Br)Nc1ccccc1`, for which the EC50 was > 80 µM (inactive).

With `Cc1ccc(NS(=O)(=O)c2cc([N+](=O)[O-])ccc2N/N=C/c2sc(N3CCOCC3)nc2-c2ccccc2)c(C)c1`, the EC50 is > 80 µM (inactive).

In the case of `O=C1c2ccccc2C(=O)N1/N=C/c1ccc(O)c(O)c1`, the EC50 was > 80 µM (inactive).

For the molecule `N#Cc1cc2c(nc1SCC(=O)Nc1sc3c(c1C#N)CCC3)CCCC2`, the EC50 is > 80 µM (inactive).

Take `CN(C)c1ccc(/C=N/NC(=O)c2ccc(NC(=O)c3ccccc3)cc2)cc1`: the EC50 was > 80 µM (inactive).

`Cc1cc(C)c2c(c1)/C(=N/Nc1ccc(S(N)(=O)=O)cc1[N+](=O)[O-])CCC2`: the EC50 is > 80 µM (inactive).

`COc1ccc(CCn2c(=S)[nH]c3cc(C(=O)NCc4ccco4)ccc3c2=O)cc1OC`: the EC50 is > 80 µM (inactive).

For `CCc1ccc(OCCNc2cc(N3CCNC(C)C3)ccc2[N+](=O)[O-])cc1` (centres undefined), the EC50 is 18.9 µM.

Take `CCOC(=O)c1nnc(-c2ccc(C)cc2)nc1Sc1cccc(Cl)c1`: the EC50 was > 80 µM (inactive).

In the case of `O=C(Nc1nc(-c2ccc3ccccc3c2)cs1)c1ccc(N2C(=O)CCC2=O)cc1`, the EC50 was > 80 µM (inactive).

Regarding `CCCCN1C(=O)/C(=C2/Sc3ccc(OC)cc3N2CC)SC1=S`, the EC50 was > 80 µM (inactive).

Consider `COc1ccc(C2c3ccc4ccccc4c3Oc3ncn(CCCN(C)C)c(=N)c32)cc1` (centres undefined), for which the EC50 was > 80 µM (inactive).

On to `COc1cc2nc(N3CCN(c4cc(C)ccc4C)CC3)nc(N)c2cc1OC`, for which the EC50 is > 80 µM (inactive).

Turning to `CCC1(c2ccc(F)cc2)NC(=O)N(CC(=O)Nc2ccc(-c3nc4ccc(C)cc4s3)cc2)C1=O` (centres undefined), the EC50 is > 80 µM (inactive).

As to `C[C@H]1[C@H](C)CC[C@]2(C(=O)O)CC[C@]3(C)C(=CC[C@@H]4[C@@]5(C)C[C@@H](O)[C@H](O)C(C)(C)[C@@H]5CC[C@]43C)[C@H]12`, the EC50 is > 80 µM (inactive).

For `Cc1ccc(NC(=O)c2c(C)nc3sc(C(=O)NC4CCCC4)c(N)c3c2-c2ccco2)c(C)c1`, the EC50 is 48.4 µM (inactive).

In the case of `COc1ccccc1Nc1nnc(SCC(=O)NC(=O)Nc2ccc3c(c2)OCCO3)s1`, the EC50 is > 80 µM (inactive).

For `CC(=O)c1cccc(N=Cc2c(O)c3ccccc3oc2=O)c1`, the EC50 is > 80 µM (inactive).

For `CC(C)N(C(=O)[C@H]1C[C@H](CC(=O)NCC23CC4CC(CC(C4)C2)C3)C(=O)N2CCc3c([nH]c4ccc(Cl)cc34)[C@]12C)C(C)C`, the EC50 is > 80 µM (inactive).

For the molecule `Oc1ccc(Br)cc1/C=N/Nc1ccccn1`, the EC50 was > 80 µM (inactive).

For `Cc1nn(-c2ccccc2)c(C)c1/C=N/NC(=O)CSc1nc2ccccc2c(=O)n1-c1ccc(Br)cc1`, the EC50 was 35.7 µM (inactive).

For the molecule `CCOC(=O)c1c(NC(=O)c2cc3n(n2)C(C(F)(F)F)CC(c2cccs2)N3)sc(C)c1C` (centres undefined), the EC50 is 15.9 µM.

As to `COc1ccc(N=Cc2c(O)c3ccccc3oc2=O)cc1`, the EC50 is 12.2 µM.

On to `O=C(NCC1CCCO1)c1nn2c(C(F)(F)F)cc(-c3cc(Br)cs3)nc2c1Br` (centres undefined), for which the EC50 is > 80 µM (inactive).

Turning to `O=S(=O)(c1ccc2nc(-c3ccccc3)[nH]c2c1)N1CCN(c2ccc(Cl)cc2)CC1`, the EC50 is > 80 µM (inactive).

Consider `O=Cc1cc2ccccc2nc1SCc1ccc(Cl)c(Cl)c1`, for which the EC50 is 52.3 µM (inactive).

`CN(C)CCCN(C(=O)c1ccc(S(=O)(=O)N2CCc3ccccc3C2)cc1)c1nc2ccc(F)cc2s1`: the EC50 was > 80 µM (inactive).

With `N#Cc1cnn2c1nc(N1CCCCC1)c1ccccc12`, the EC50 was > 80 µM (inactive).

Take `CCN(CC)c1ccc(N=Cc2c(O)n(-c3ccc(Cl)cc3)c(=O)[nH]c2=O)cc1`: the EC50 is 22.7 µM (inactive).

On to `CCOC(=O)c1nnn2c1nc(Nc1cccc(C(F)(F)F)c1)c1ccccc12`, for which the 50% effective concentration (EC50) is 17.2 µM.

With `CC1=CC(C)(C)N2C(=O)C(=O)c3cc(OC(=O)c4ccco4)cc1c32`, the EC50 was 53.1 µM (inactive).

For the molecule `CCc1nc(N=Nc2c(O)[nH]c3ccccc23)c2c3c(sc2n1)CCC3`, the EC50 is 16.1 µM.

On to `COc1ccccc1-c1cc(-c2ccccc2)nc(SC(C(N)=O)c2ccccc2)c1C#N` (centres undefined), for which the EC50 was 71.2 µM (inactive).

Turning to `COc1ccc(C2NCCc3c2[nH]c2ccccc32)cc1COc1ccc(F)cc1` (centres undefined), the EC50 is > 80 µM (inactive).

For `CCCCN(CC)S(=O)(=O)c1ccc(C(=O)N(CCCN(C)C)c2nc3cc(C)cc(C)c3s2)cc1`, the EC50 is > 80 µM (inactive).

Consider `CCc1ccc(N2C(=O)NC(=O)/C(=C\c3cccn3CCOc3ccc(C(C)C)cc3)C2=O)cc1`, for which the EC50 is > 80 µM (inactive).

As to `O=C(N/N=C/c1ccc(Cl)cc1)c1sccc1OCc1ccc(F)cc1`, the EC50 is 49.3 µM (inactive).

As for `Clc1ccc(-c2ccc(/C=N/Nc3nncc(-c4ccccc4)n3)o2)cc1`, the EC50 was > 80 µM (inactive).

`COc1ccc(Cn2c(SCc3ccccc3C)nc3cc(OC)c(OC)cc3c2=N)cc1`: the EC50 is 15.5 µM.

Consider `COc1ccc(Nc2nc(N)c([N+](=O)[O-])c(NC3CCCCC3)n2)cc1`, for which the EC50 was > 80 µM (inactive).

Regarding `COc1cc(N(C(=O)Cc2cccs2)C(C(=O)NC2CCCCC2)c2ccc(C)cc2)ccc1-n1cnnn1` (centres undefined), the EC50 was > 80 µM (inactive).

As to `O=C(NCCCn1ccnc1)c1nn2c(C(F)(F)F)cc(-c3ccc(Br)cc3)nc2c1Cl`, the EC50 was 21.6 µM (inactive).

For `Cc1cccc2c1Sc1ccc(Cl)cc1CC2N1CCNCC1` (centres undefined), the EC50 was > 80 µM (inactive).

Turning to `Cc1ccc2oc(C(Cl)(Cl)Cl)cc(=O)c2c1`, the EC50 is 28.3 µM (inactive).

`CCOc1ccc2nc(NC3=NC(c4ccc(OC)cc4)CC(=O)N3)nc(C)c2c1` (centres undefined): the EC50 was 15.6 µM.

In the case of `Nc1c(C(=O)Nc2ccc(S(=O)(=O)N3CCCC3)cc2)sc2nc3ccc(OC(F)(F)F)cc3cc12`, the EC50 is 12 µM.

With `O=C(/C=C/c1ccco1)NC(=S)Nc1ccc(O)c(-c2nc3ccccc3s2)c1`, the EC50 was 10.4 µM.

For the molecule `COc1ccc(OCc2n(CC(=O)OC3CC(C)CCC3C(C)C)c3ccccc3[n+]2C)cc1` (centres undefined), the EC50 was > 80 µM (inactive).

Consider `COc1cc(SC#N)ccc1N=Cc1c(C)[nH]n(-c2ccc(C)c(C)c2)c1=O`, for which the EC50 is > 80 µM (inactive).

`CCOC(=O)c1c(NC(=O)c2cc(C)on2)c2cc([N+](=O)[O-])ccc2n1C`: the EC50 is > 80 µM (inactive).

For the molecule `CCOc1cc(/C=N\Nc2ccc([N+](=O)[O-])cc2)ccc1OCC(=O)Nc1ccc(C)c(C)c1`, the EC50 was 43.2 µM (inactive).
